# Laboratory results as given in patent US20250051340A1, “TRIAZOLONE DERIVATIVE SALT AS NEUTROPHIL ELASTASE INHIBITOR” (CHIESI FARMACEUTICI S.P.A., priority 2021, published 2025).
# Where two headings read alike, the source gives them in different places.
# Tests used:
# [1] = rat, in vivo
# Procedure: (§1) In addition, the effects of different (2-{5-Cyano-2-[(R)-6-methoxycarbonyl-7-methyl-3-oxo-8-(3-trifluoromethyl-phenyl)-2,3,5,8-tetrahydro-[1,2,4]triazolo[4,3-a]pyrimidin-5-yl]-phenyl}-ethyl)-trimethyl-ammonium salts on lung function parameters were also assessed in rats by head-out plethysmography in order to compare the potential local adverse effects of each salt of (2-{5-Cyano-2-[(R)-6-methoxycarbonyl-7-methyl-3-oxo-8-(3-trifluoromethyl-phenyl)-2,3,5,8-tetrahydro-[1,2,4]triazolo[4,3-a]pyrimidin-5-yl]-phenyl}-ethyl)-trimethyl-ammonium.
# (§2) The duration of aerosol exposure was of 60 minutes. On the day of dosing, animals were placed into the plethysmograph tubes for at least 30 minutes prior to dosing and respiratory parameters: respiratory rate, tidal volume, and PenH were continuously recorded for at least 30 minutes pre-dose, 60 minutes during dosing (exposure) and 90 minutes post-exposure. The respiratory parameters were recorded every minute for a total period of 3 hours using the EMMS eDacq system (PLY231, EMMS, Bordon, United Kingdom).
# [2] = biological target: T1, human neutrophil elastase (HNE) (Homo sapiens, UniProt P08246); assay: HNE-induced lung injury assay (BAL fluid haemoglobin content); type: in vivo, rat; conditions: i.t.; for % Inhibition of HNE-induced BAL fluid haemoglobin content at 3 μg/Kg / % Inhibition of HNE-induced BAL fluid haemoglobin content at 30 μg/Kg / % Inhibition of HNE-induced BAL fluid haemoglobin content at 300 μg/Kg: male Sprague Dawley rats, wet formulation, 3 h before HNE 100 U/rat, vs HNE-treated vehicle control
# T1 sequence (P08246 30-267): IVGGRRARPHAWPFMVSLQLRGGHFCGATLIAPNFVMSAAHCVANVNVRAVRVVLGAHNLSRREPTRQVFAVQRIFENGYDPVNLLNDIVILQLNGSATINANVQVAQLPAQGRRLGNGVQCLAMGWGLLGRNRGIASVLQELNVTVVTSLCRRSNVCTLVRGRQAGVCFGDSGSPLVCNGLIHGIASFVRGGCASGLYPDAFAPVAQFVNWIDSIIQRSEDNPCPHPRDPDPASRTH
# Procedure: Then, one hour after the PBS or HNE administration animals were sacrificed and bronchoalveolar lavage (BAL) was performed in order to assess the HNE-induced lung injury measured as haemoglobin concentration. BAL fluid samples were centrifuged at 800 g for 15 min at 4° C. The supernatant was collected, and the pellet was re-suspended in 3 mL of distilled water. A standard curve with known volumes of lysated blood cells was made from a stem solution of lysated blood cells. 150 µL of standards and samples were transferred in duplicate to a 96-well plate and the OD measured at 412 nm. Percentage of compound efficacy (assessed as inhibition of HNE-induced haemoglobin content in BALF) was calculated following this formula: 100−[(mean of haemoglobin concentration of test compound treated rats exposed to HNE)−(mean of haemoglobin concentration of vehicle treated rats exposed to PBS)]/[(mean of haemoglobin concentration of vehicle treated rats exposed to HNE)−(mean of haemoglobin concentration of vehicle treated rats exposed to PBS)]×100.
# [3] = Solubility in water at RT; type: physicochemical
# Procedure: The complete dissolution of the material was visually observed.
# A saturated solution of hemi-pamoate salt in water at RT was prepared, with a theoretical concentration of about 2 mg/ml. The solid in excess was filtered out and the content of the solution was quantified by LC/UV at different check points until 24 hours.
# [4] = Head-out plethysmography (HOP) assay, lung function parameters; conditions: male Wistar rats, single snout-only inhalation, dry powder, 0.7 and 7 mg/kg, during or after dosing
# Procedure: as §1, §2
# [5] = thermodynamic from solid, read-out: Solubility
compound,measurement,setting,value
"COC(=O)C1=C(C)N(c2cccc(C(F)(F)F)c2)c2n[nH]c(=O)n2[C@@H]1c1ccc(C#N)cc1CC[N+](C)(C)C.[Br-] [Bromide, (2-{5-Cyano-2-[(R)-6-methoxycarbonyl-7-methyl-3-oxo-8-(3-trifluoromethyl-phenyl)-2,3,5,8-tetrahydro-[1,2,4]triazolo[4,3-a]pyrimidin-5-yl]-phenyl}-ethyl)-trimethyl-ammonium bromide]",% of Reduction of tidal volume,"[1]; male, Wistar",38%
same,increase in PenH area compared to vehicle,"[1]; male, Wistar, 0.55 mg/kg",about 8 fold
same,"increase in respiratory rate, maximum effect","[1]; male, Wistar, 0.55 mg/kg",59%
same,increase in PenH area compared to vehicle,"[1]; male, Wistar, 5.5 mg/kg",~20 fold
same,"reduction in tidal volume, maximum","[1]; male, Wistar, 5.5 mg/kg",38%
"COC(=O)C1=C(C)N(c2cccc(C(F)(F)F)c2)c2n[nH]c(=O)n2[C@@H]1c1ccc(C#N)cc1CC[N+](C)(C)C [Hemi-pamoate, (2-{5-Cyano-2-[(R)-6-methoxycarbonyl-7-methyl-3-oxo-8-(3-trifluoromethyl-phenyl)-2,3,5,8-tetrahydro-[1,2,4]triazolo[4,3-a]pyrimidin-5-yl]-phenyl}-ethyl)-trimethyl-ammonium hemi-pamoate]",% Inhibition of HNE-induced BAL fluid haemoglobin content at 3 μg/Kg,[2],30%
same,% Inhibition of HNE-induced BAL fluid haemoglobin content at 30 μg/Kg,[2]; 30 μg/kg,43%
same,% Inhibition of HNE-induced BAL fluid haemoglobin content at 300 μg/Kg,[2]; 300 μg/kg,80%
same,"inhibition of BAL fluid haemoglobin levels, dry powder, 30 μg/kg","[2]; rats, dry powder formulation, 30 μg/kg, vs HNE-treated vehicle (lactose) control",4%
same,"inhibition of BAL fluid haemoglobin levels, dry powder, 300 μg/kg","[2]; rats, dry powder formulation, 300 μg/kg, vs HNE-treated vehicle (lactose) control",54%
same,"inhibition of BAL fluid haemoglobin levels, dry powder, 600 μg/kg","[2]; rats, dry powder formulation, 600 μg/kg, vs HNE-treated vehicle (lactose) control",60%
same,% of Reduction of tidal volume,[1],No variation of any lung function parameters
same,solubility,[3]; [5],0.17 mg/mL
"COC(=O)C1=C(C)N(c2cccc(C(F)(F)F)c2)c2n[nH]c(=O)n2[C@@H]1c1ccc(C#N)cc1CC[N+](C)(C)C.CS(=O)(=O)[O-] [Methanesulfonate, (2-{5-Cyano-2-[(R)-6-methoxycarbonyl-7-methyl-3-oxo-8-(3-trifluoromethyl-Phenyl)-2,3,5,8-tetrahydro-[1,2,4]triazolo[4,3-a]Pyrimidin-5-yl]-phenyl}-ethyl)-trimethyl-ammonium methanesulfonate]",% Inhibition of HNE-induced BAL fluid haemoglobin content at 3 μg/Kg,[2],19%
same,% Inhibition of HNE-induced BAL fluid haemoglobin content at 30 μg/Kg,[2]; 30 μg/kg,30%
same,% Inhibition of HNE-induced BAL fluid haemoglobin content at 300 μg/Kg,[2]; 300 μg/kg,73%
same,% of Reduction of tidal volume,"[1]; male, Wistar",35-39%
same,increase of PenH compared to vehicle,"[1]; male, Wistar, 0.6 mg/kg",about 8 fold
same,"increase of respiratory rate, peak effect","[1]; male, Wistar, 0.6 mg/kg",32%
same,"reduction of tidal volume, peak effect","[1]; male, Wistar, 0.6 mg/kg",35%
same,increase of PenH compared to vehicle,"[1]; male, Wistar, 6 mg/kg",~16 fold
same,"increase of respiratory rate, peak effect","[1]; male, Wistar, 6 mg/kg",54%
same,"reduction of tidal volume, peak effect","[1]; male, Wistar, 6 mg/kg",39%
same,solubility,[3]; methanesulfonate,>200 mg/mL
same,solubility,[3]; [5],> 200 mg/mL
"(2-{5-Cyano-2-[(R)-6-methoxycarbonyl-7-methyl-3-oxo-8-(3-trifluoromethyl-phenyl)-2,3,5,8-tetrahydro-[1,2,4]triazolo[4,3-a]pyrimidin-5-yl]-phenyl}-ethyl)-trimethyl-ammonium hemi-pamoate","effect on lung function parameters (respiratory rate, tidal volume, PenH)",[4],does not affect any lung function parameters
